The record followed here is publication PMC10193966, “Structure of WNT inhibitor adenomatosis polyposis coli down-regulated 1 (APCDD1), a cell-surface lipid-binding protein” (Proceedings of the National Academy of Sciences of the …, 2023).

This experiment deals with T1, eMBP-APCDD1 (APCDD1 ECD; lipid in ABD2) (Mus musculus, UniProt Q3U128).
T1 construct: extracellular domain residues 47-481, N-terminal engineered MBP fusion, C-terminal 8xHis; secreted from HEK293T (kifunensine); Endo-F1 and carboxypeptidase A/B treated in situ; single-span membrane protein without TM
Briefly: X-ray crystal structure ([…] Å); HPLC/MS of extract from purified APCDD1. Type of experiment: binding. The following applies: co-purified lipid from HEK293 expression with 2% serum; ABD2 hydrophobic pocket, chains A and C; MS sample named only purified APCDD1.

T1 sequence (Q3U128 47-481): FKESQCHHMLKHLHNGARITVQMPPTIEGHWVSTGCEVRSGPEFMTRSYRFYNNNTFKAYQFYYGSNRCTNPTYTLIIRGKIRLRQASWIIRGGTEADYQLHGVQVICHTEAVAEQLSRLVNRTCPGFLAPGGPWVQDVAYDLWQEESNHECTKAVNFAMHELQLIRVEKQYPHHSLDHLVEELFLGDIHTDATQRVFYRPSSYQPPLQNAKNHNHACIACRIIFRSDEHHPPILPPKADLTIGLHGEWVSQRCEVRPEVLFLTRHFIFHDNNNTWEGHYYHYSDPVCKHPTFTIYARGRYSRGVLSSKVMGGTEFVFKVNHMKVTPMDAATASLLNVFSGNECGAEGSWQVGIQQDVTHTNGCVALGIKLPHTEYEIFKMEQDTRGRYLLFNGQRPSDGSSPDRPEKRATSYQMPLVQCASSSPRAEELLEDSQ

Turning to `CCCCCCCCCCCCCCCCCC(=O)O` [stearic acid], the “X-ray crystal structure (2.3 Å); HPLC/MS of extract from purified APCDD1” value is reported as “This analysis revealed stearic acid, a C18 fatty acid”.
